This is an account of results in ChEMBL document CHEMBL1135155, “Optimization of the beta-aminoester class of factor Xa inhibitors. Part 2: Identification of FXV673 as a potent and selective inhibitor with excellent In vivo anticoagulant activity” (Bioorg Med Chem Lett, 2002).

One assay concerns the target Prothrombin (Homo sapiens, UniProt P00734). Kind of assay: Inhibition of Coagulation factor IIa.
For another assay, the target named is Coagulation factor X (Homo sapiens, UniProt P00742). Kind of assay: Inhibition of Coagulation factor Xa.
Sequence of Coagulation factor X (P00742 41-179 limits assumed): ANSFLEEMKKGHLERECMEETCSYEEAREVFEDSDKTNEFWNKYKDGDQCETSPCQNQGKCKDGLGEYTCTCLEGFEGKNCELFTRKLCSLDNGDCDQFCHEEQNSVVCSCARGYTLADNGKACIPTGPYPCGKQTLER
Sequence of Coagulation factor X (P00742 235-488 limits assumed): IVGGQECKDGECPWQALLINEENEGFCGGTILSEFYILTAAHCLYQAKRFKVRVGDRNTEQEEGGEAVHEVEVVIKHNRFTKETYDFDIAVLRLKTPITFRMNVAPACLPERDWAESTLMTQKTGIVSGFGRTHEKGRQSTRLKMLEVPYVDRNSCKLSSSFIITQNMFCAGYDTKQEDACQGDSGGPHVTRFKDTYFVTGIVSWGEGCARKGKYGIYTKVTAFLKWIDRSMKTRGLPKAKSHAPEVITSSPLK
The next assay addresses Serine protease 1 (Homo sapiens, UniProt P07477). Kind of assay: In vitro inhibitory potency against Trypsin.
Assay [1] in a line: Selectivity ratio as Ki of Activated protein C / Ki of factor Xa.
Assay [2] can be described thus: Selectivity ratio as Ki of Trypsin / Ki of factor Xa.
Assay [3] is filed under the species Rattus norvegicus. Kind of assay: Concentration at which compound inhibited coagulation of rat plasma in vitro, doubling activated partial thromboplastin time (APTT). In kind it is functional, cell-free.
A short description of assay [4]: Selectivity ratio as Ki of Serine proteases tissue plasminogen activator / Ki of factor Xa.
For the next assay, the species on record is Homo sapiens. Kind of assay: Concentration at which compound inhibited coagulation of human plasma in vitro, doubling activated partial thromboplastin time (APTT). In kind it is functional, cell-free.
The target in assay [5] is Thrombin and coagulation factor X (Homo sapiens) (UniProt P00734+P00742). Kind of assay: Selectivity ratio as Ki of factor IIA / Ki of factor Xa. In kind it is protein assay.
Sequence of Thrombin and coagulation factor X (Homo sapiens) (P00742 whole entry, looked up, other chains not shown, the tested form may be a part): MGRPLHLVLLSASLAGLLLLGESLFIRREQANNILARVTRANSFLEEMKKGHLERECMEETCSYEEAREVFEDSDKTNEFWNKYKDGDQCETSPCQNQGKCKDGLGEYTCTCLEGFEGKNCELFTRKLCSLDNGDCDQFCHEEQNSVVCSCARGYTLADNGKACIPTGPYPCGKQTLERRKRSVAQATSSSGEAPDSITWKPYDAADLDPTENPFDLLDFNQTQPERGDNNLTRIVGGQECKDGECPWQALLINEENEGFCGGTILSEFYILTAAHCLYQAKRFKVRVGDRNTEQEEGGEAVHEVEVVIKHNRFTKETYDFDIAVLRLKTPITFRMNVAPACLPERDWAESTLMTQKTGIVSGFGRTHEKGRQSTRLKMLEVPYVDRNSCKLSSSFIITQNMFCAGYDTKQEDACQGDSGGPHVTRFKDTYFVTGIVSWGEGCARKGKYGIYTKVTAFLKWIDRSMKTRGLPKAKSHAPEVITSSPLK
Assay [6] is filed under the species Rattus norvegicus. Kind of assay: Tested for maximal effective dose in ferrous-chloride induced arterial thrombosis by bolus infusion. In kind it is functional. As to conditions: read-out: MED.
In assay [7] the test system is Rattus norvegicus. Kind of assay: Tested for maximal effective dose in ferrous-chloride induced arterial thrombosis by intravenous maintenance infusion. In kind it is functional.

Sequence of Serine protease 1 (P07477 whole entry): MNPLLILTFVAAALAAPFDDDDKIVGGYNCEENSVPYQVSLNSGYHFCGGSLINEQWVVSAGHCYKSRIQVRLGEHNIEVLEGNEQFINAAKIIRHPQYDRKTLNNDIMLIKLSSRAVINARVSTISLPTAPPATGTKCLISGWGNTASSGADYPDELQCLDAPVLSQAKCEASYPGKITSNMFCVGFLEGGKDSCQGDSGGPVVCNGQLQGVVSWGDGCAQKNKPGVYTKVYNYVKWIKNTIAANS

A word on the Ki: it is the equilibrium dissociation constant of an inhibitor or competing ligand from its target. Turning to `COC(=O)[C@H](Cc1cccc(C(=N)N)c1)[C@@H](C)NC(=O)c1ccc(-c2ccncc2)cc1`, the values for the Ki on Prothrombin, at Coagulation factor X and on Serine protease 1 were more than 4 µM, 0.0005 µM and 0.076 µM, respectively.

For `COC(=O)[C@H](Cc1cccc(C(=N)N)c1)[C@@H](C)NC(=O)c1ccc(-n2ccnc2)cc1`, the Ki at Prothrombin is more than 4 µM; on Coagulation factor X, 0.006 µM; at Serine protease 1 it was more than 2.9 µM.

Take `COC(=O)[C@H](Cc1cccc(C(=N)N)c1)[C@@H](C)NC(=O)c1ccc(-c2c[nH]cn2)cc1`: the Ki is more than 4 µM on Prothrombin, 0.003 µM at Coagulation factor X and 0.17 µM on Serine protease 1.

Regarding `COC(=O)[C@H](Cc1cccc(C(=N)N)c1)[C@@H](C)NC(=O)c1ccc(-c2cccc[n+]2[O-])cc1`, the values for the Ki at Prothrombin, on Coagulation factor X and on Serine protease 1 were more than 4 µM, 0.00058 µM and 0.036 µM, respectively.

Turning to `COC(=O)[C@H](Cc1cccc(C(=N)N)c1)[C@@H](C)NC(=O)c1ccc(-c2cccc[n+]2C)cc1`, the Ki is more than 4 µM at Prothrombin, 0.0012 µM on Coagulation factor X and 0.036 µM on Serine protease 1.

In the case of `COC(=O)[C@H](Cc1cccc(C(=N)N)c1)[C@@H](C)NC(=O)c1ccc(-c2ccc[n+](C)c2)cc1`, the Ki at Prothrombin is more than 4 µM; at Coagulation factor X, 0.0008 µM; at Serine protease 1 it was 0.052 µM.

In the case of `COC(=O)[C@H](Cc1cccc(C(=N)N)c1)[C@@H](C)NC(=O)c1ccc(-c2cc[n+](C)cc2)cc1`, the Ki was more than 4 µM on Prothrombin, 0.0027 µM at Coagulation factor X and 0.168 µM at Serine protease 1.

Take `COC(=O)[C@H](Cc1cccc(C(=N)N)c1)[C@@H](C)NC(=O)c1ccc(-c2ncc[nH]2)cc1`: the results for the Ki on Prothrombin, at Coagulation factor X and on Serine protease 1 were more than 4 µM, 0.046 µM and 0.49 µM, respectively.

Turning to `COC(=O)[C@H](Cc1cccc(C(=N)N)c1)[C@@H](C)NC(=O)c1ccc(-c2cccnc2)cc1`, the Ki on Prothrombin amounted to 4 µM; on Coagulation factor X, 0.008 µM; at Serine protease 1, 0.368 µM.

With `COC(=O)[C@H](Cc1cccc(C(=N)N)c1)[C@@H](C)NC(=O)c1ccc(-c2ccccn2)cc1`, the Ki was 2.8 µM on Prothrombin, 0.00089 µM at Coagulation factor X and 0.051 µM on Serine protease 1.

With `COC(=O)[C@H](Cc1cccc(C(=N)N)c1)[C@@H](C)NC(=O)c1ccc(-c2ccccc2)cc1`, the Ratio in [1] was more than 1000; in assay [2], 13; in [4], more than 1000; in assay [5], 610. Moreover, the Ki at Prothrombin was 3.25 µM. The Concentration in the assay filed under Rattus norvegicus [3] is 5.1 µM; in the assay filed under Homo sapiens, 3.9 µM.

For `COC(=O)[C@H](Cc1cccc(C(=N)N)c1)[C@@H](C)NC(=O)c1ccc(-c2ccc[n+]([O-])c2)cc1`, the Ki at Prothrombin was more than 4 µM; on Coagulation factor X, 0.002 µM; at Serine protease 1, 0.13 µM.

Take `COC(=O)[C@H](Cc1cccc(C(=N)N)c1)[C@@H](C)NC(=O)c1ccc(-c2cc[n+]([O-])cc2)cc1` [OTAMIXABAN]: the Ratio in assay [1] is more than 10000; in assay [2], 750; in [4] it was more than 10000; in [5] it was more than 10000. The minimal effective dose in the assay filed under Rattus norvegicus [6] came out at 0.05 mg/kg. In addition, the Ki at Prothrombin is more than 4 µM; on Serine protease 1, 0.301 µM. Moreover, the Concentration in the assay listed under Rattus norvegicus [3] is 0.8 µM; in the assay filed under Homo sapiens it was 0.41 µM. This compound showed an MED in the assay with Rattus norvegicus [7] of 5 µg/min/kg.
